As a reminder, the pIC50 is the IC50 on a negative log10 scale, so that one unit is a factor of ten.

pIC50: −log10 of the molar value. Active and inactive are the calls of the source. No cut-off for these calls is given here.

We go through 18 compounds from ChEMBL document CHEMBL1800000, “Identification of non-amidine inhibitors of acid-sensing ion channel-3 (ASIC3)” (Bioorg Med Chem Lett, 2011).

Data set [1] concerns the target T1, Acid-sensing ion channel 3 (Homo sapiens, UniProt Q9UHC3).
T1 sequence (Q9UHC3 whole entry): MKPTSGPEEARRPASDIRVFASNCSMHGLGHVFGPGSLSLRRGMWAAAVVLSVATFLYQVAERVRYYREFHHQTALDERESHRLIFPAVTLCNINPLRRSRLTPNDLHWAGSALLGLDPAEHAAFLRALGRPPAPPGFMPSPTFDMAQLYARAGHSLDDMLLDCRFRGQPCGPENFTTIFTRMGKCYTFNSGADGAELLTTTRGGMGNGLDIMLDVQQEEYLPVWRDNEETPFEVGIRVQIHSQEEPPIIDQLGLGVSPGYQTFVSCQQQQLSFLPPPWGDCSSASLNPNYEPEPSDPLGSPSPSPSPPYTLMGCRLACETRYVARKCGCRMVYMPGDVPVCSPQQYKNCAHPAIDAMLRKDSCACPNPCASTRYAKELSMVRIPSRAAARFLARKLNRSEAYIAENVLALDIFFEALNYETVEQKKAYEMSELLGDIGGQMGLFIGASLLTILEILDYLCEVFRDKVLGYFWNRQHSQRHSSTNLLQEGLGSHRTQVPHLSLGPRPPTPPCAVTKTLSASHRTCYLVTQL
Description: Inhibition of ASIC3 assessed as inhibition of peak current by electrophysiology method.

Data set [2] can be described thus: Ratio of drug level in brain to plasma in […]. Particulars: rat, read-out: BPR. The format is ADME.
Data set [3] can be described thus: Inhibition of adrenergic receptor.
The nature of data set [4]: Inhibition of muscarinic receptor.
Data set [5] can be described thus: Inhibition of serotonin receptor.
The nature of data set [6]: Inhibition of dopamine receptor.
The test system of data set [7] is Rattus norvegicus. Description: Toxicity in Sprague-Dawley rat brain assessed as lethargy at 100 mg/kg, po. The format is organism-based. Details: dose 100 mg/kg, route oral. Particulars: in vivo.
Data set [8] deals with Rattus norvegicus. Description: Induction of sedative activity in Sprague-Dawley rat at 100 mg/kg, po. It is filed as organism-based. Further details: dose 100 mg/kg, route oral. Conditions: in vivo.
Data set [9] in a line: Plasma concentration in Sprague-Dawley rat at 100 mg/kg, po after 30 mins. It is filed as ADME, organism-based. Further details: dose 100 mg/kg, route oral.
Another data set deals with Brain. The experiment in a line: Drug uptake in Sprague-Dawley rat brain at 100 mg/kg, po. It is filed as ADME, organism-based. Further details: dose 100 mg/kg, route oral. Particulars: in vivo, read-out: Drug uptake.
A short description of data set [10]: Ratio of drug level in brain to plasma in Sprague-Dawley rat at 100 mg/kg, po. It is filed as ADME, organism-based. Details: dose 100 mg/kg, route oral. Conditions: read-out: BPR.
In data set [11] the target is T2, Acid-sensing ion channel 1 (Homo sapiens, UniProt P78348).
T2 sequence (P78348 whole entry): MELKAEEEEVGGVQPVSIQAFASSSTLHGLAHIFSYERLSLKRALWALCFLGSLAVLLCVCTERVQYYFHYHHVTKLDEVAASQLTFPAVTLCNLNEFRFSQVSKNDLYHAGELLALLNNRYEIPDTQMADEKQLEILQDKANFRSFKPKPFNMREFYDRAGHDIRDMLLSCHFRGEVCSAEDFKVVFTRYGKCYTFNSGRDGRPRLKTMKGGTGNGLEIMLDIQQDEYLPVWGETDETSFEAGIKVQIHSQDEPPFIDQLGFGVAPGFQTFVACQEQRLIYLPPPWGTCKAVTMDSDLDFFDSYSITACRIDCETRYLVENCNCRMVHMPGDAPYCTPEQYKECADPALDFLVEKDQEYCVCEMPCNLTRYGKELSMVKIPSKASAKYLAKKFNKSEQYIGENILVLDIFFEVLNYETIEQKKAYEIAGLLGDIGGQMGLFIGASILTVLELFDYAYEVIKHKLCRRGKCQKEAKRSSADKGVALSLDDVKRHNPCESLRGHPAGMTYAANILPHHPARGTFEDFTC
The experiment in a line: Inhibition of ASIC1a.

The subject of data set [12] is Rattus norvegicus. Description: Antihyperalgesic effect in complete Freund's adjuvant-induced Sprague-Dawley rat inflammatory pain model assessed as reversal of mechanical hypersensitivity at 100 mg/kg, po after 30 mins. It is filed as functional, organism-based. Further details: dose 100 mg/kg.

As for `NCc1sc2cc(C#Cc3ccc4c(c3)CN(CC(F)(F)F)CC4)ccc2c1Cl`, the pIC50 in data set [1] is < 4.30.

As to `NCc1ccc2cc(C#Cc3ccccc3)ccc2c1`, the negative-log IC50 (pIC50) in data set [1] was 5.32.

Turning to `CC(C)C1c2cc(C#Cc3ccc4cc(C(=N)N)ccc4c3)ccc2CCN1C` (stereo unspecified), the negative logarithm of the IC50 (pIC50) in data set [1] was 6.34; in data set [3], > 5.00; in data set [4], > 5.00; in [5], > 5.00; in data set [6] it was > 5.00. Also, the Kp in data set [2] was 2.6.

For `N=C(N)c1ccc2cc(C#Cc3ccccc3)ccc2c1`, in [1], the pIC50 was 5.20.

Turning to `NCc1sc2cc(C#Cc3ccc4c(c3)CN(CC(F)F)CC4)ccc2c1Cl`, the pIC50 in data set [1] was 4.99.

For `CC(C)(C)OC(=O)N1CCc2ccc(C#Cc3ccc4c(Cl)c(CN)sc4c3)cc2C1`, the negative logarithm of the IC50 (pIC50) in data set [1] was < 4.30.

With `NCc1sc2cc(C#Cc3ccccc3)ccc2c1Cl`, the negative-log IC50 (pIC50) in [1] is 5.55.

Turning to `CN(C)C1CCCc2c(C#Cc3ccc4c(Cl)c(CN)sc4c3)cccc21` (stereo unspecified), the negative logarithm of the IC50 (pIC50) in data set [1] was 6.64.

For `NCc1sc2cc(C#Cc3cccc4c3CCCC4N3CCCC3)ccc2c1Cl` (stereo unspecified), in data set [1], the pIC50 was 5.60.

In the case of `CC(C)N1CCc2ccc(C#Cc3ccc4c(Cl)c(CN)sc4c3)cc2C1`, the pIC50 in [1] was 6.51.

Consider `CC1c2cc(C#Cc3ccc4c(Cl)c(CN)sc4c3)ccc2CCN1C` (stereo unspecified), for which the pIC50 in data set [1] is 6.57.

For `CN1CCc2ccc(C#Cc3ccc4c(Cl)c(CN)sc4c3)cc2C1`, the negative logarithm of the IC50 (pIC50) in data set [1] is 6.17.

As for `N=C(N)c1sc2cc(C#Cc3ccccc3)ccc2c1Cl`, in [1], the pIC50 is 5.47.

In the case of `CCN1CCc2ccc(C#Cc3ccc4c(Cl)c(CN)sc4c3)cc2C1`, the negative-log IC50 (pIC50) in data set [1] was 6.64.

Take `NCc1sc2cc(C#Cc3ccc4c(c3)CN(Cc3ccccc3)CC4)ccc2c1Cl`: the negative-log IC50 (pIC50) in [1] was 4.77.

Consider `CN(C)C1CCc2c(C#Cc3ccc4c(Cl)c(CN)sc4c3)cccc21` (stereo unspecified), for which, in data set [1], the pIC50 was 6.72.

As for `NCc1sc2cc(C#Cc3ccc4c(c3)CNCC4)ccc2c1Cl`, the Activity entry in the data set on Rattus norvegicus [7] and with Rattus norvegicus [8] was “Toxic” in each case. In data set [9], this compound returned a concentration at 0.5 h of 3.6 µM. The pIC50 in [1] is 6.66; in [11] it was 6.65. Moreover, the concentration in the data set with Brain was determined as 14 µM. The Kp in [2] is 15.4; in [10], 6. Further, in the data set with Rattus norvegicus [12], the outcome was Active.

Consider `CC(c1cccc(C#Cc2ccc3c(Cl)c(CN)sc3c2)c1)N(C)C` (stereo unspecified), for which the negative logarithm of the IC50 (pIC50) in [1] is 5.37.
